What all share (type): cell-based
One assay deals with HCC-78 cells. Description: WST-1 assay, cell growth inhibitory effect on lung carcinoma cell line (HCC-78). The conditions noted are these: for growth rate of HCC-78 cells (control group = 100%): 1 μM; for inhibition of growth of HCC-78 cells (in words): 1 μM, 24, 48 and 72 hours, Student's t-test, p<0.05. The procedure: Specifically, HCC-78 lung cancer cells deposited under an accession number of KCTC13642BP on Sep. […] At this time, DMSO (dimethyl sulfoxide) was added to a control group in an amount to be 0.01% of the total medium, 1 μM doxorubicin was added to a positive control group, and then these control group and positive control group were cultured for 24, 48, and 72 hours, respectively. In addition, the experiment was conducted using an A549 cell line instead of the HCC cell line as a negative control group. The A549 cell line is a kRAS mutant cell line and is also a cell line which is not involved in the overexpression of ALK and ROS-1.
When each of the culture times passed after drug treatment, the WST-1 reagent was added to each medium in an amount to be 10% of the medium, the cells were cultured for 1 hour, and then the absorbance of cells was measured at 470 nm by using an ELISA instrument.

Assay [1] concerns MCF-7 breast cancer cells. In words: MTT assay, cell viability of breast cancer cell line (MCF-7). The conditions noted are these: 1 μM, 72 hours. The procedure:
Specifically, MCF-7 breast cancer cells deposited under an accession number of KCTC13643BP on Sep. […] At this time, DMSO (dimethyl sulfoxide) was added to a control group in an amount to be 0.01% of the total medium, 1 μM paclitaxel was added to a positive control group, and then these control group and positive control group were cultured for 72 hours.
When each of the culture times passed after drug treatment, the supernatant of each medium was removed, the MTT reagent was added to the fresh medium so as to be 0.5 mg/ml, the cells were cultured for 3 hours, then the supernatant was removed again, and then the medium was reconstituted with 100 μL of DMSO. Thereafter, the absorbance of cells was measured at 590 nm by using an ELISA instrument.
Background: Tetrazolium assays rely on reduction of a dye to a coloured formazan, in cell work by metabolically active cells.

The subject of a further assay is HCC-78 cell line. In words: Change in metabolites in HCC-78 cell line after ALK/ROS-1 kinase inhibitor treatment, UHPLC-MS. The conditions noted are these: HCC-78, 1 μM, 24 hours, n=5.
The next assay has as its system MCF-7 cell line. In words: Change in metabolites in MCF-7 cell line after crizotinib treatment, UHPLC-MS. As to conditions: MCF-7, 1 μM, 12 hours, n=5.

Procedure for HCC-78 cell line: HCC-78 lung cancer cells were cultured in a 5% carbon dioxide cell incubator at a temperature of 37° C. using a RPMI medium containing 10% fetal bovine serum and 1% antibiotic. […] At this time, as a control group, DMSO (dimethyl sulfoxide) was added to the cells in an amount to be 0.01% of the total medium, and the cells were cultured for 24 hours. Each cell was cultured in 5 cell dishes for each group so that the total number of experiments for each group was 5 (n=5).
After the culture time of 24 hours had elapsed, the medium was removed, and the cells were washed two times with PBS (phosphate buffered saline). The cells were then acquired from the culture dish using a cell scraper, put in a tube, and stored at −80° C.
(§1) Thereafter, a process in which the mixed solution was frozen using liquid nitrogen, dissolved in water at room temperature, and then sonicated for 30 seconds was repeated three times to destroy the cells. Thereafter, the resultant mixed solution was subjected to centrifugation at 14000 rpm for 10 minutes, and only the supernatant was separated from this. At this time, DNA quantitation was conducted in order to correct the cell volume of the intracellular fluid extract acquired according to the series of procedures. DNA quantitation was conducted by mixing the extract with water at a ratio of 1:3, putting 5 μL of the mixture in a cuvette, and measuring the quantity at 260 nm by using a spectrophotometer Nano-MD of SHINKO CO., LTD.
(§2) Specifically, 10 μL of the acquired sample was injected into the ultra-high-performance liquid chromatography system-mass spectrometer, and the temperature of the injector was maintained at 4° C. […]
(§3) Specifically, Excel raw data attained by conducting calibration and peak alignment using the compound discovery software of Thermo Fisher Scientific Inc. was extracted from the chromatogram. […] The extracted file was first divided by the internal standard substance and corrected using DNA quantitation of cells, and statistical processing was conducted using SIMCA software. […]
Procedure for MCF-7 cell line: MCF-7 breast cancer cells were cultured in a 5% carbon dioxide cell incubator at a temperature of 37° C. using a DMEM medium containing 10% fetal bovine serum and 1% antibiotic. […] At this time, as a control group, DMSO was added to the cells in an amount to be 0.01% of the total medium, and the cells were cultured for 12 hours. Each cell was cultured in 5 cell dishes for each group so that the total number of experiments for each group was 5 (n=5).
After the culture time of 12 hours had elapsed, the medium was removed, and the cells were washed two times with PBS. The cells were then acquired from the culture dish using a cell scraper, put in a tube, and stored at −80° C.
as §1, §2, §3

Consider `COc1cccc2c1C(=O)c1c(O)c3c(c(O)c1C2=O)C[C@@](O)(C(=O)CO)C[C@@H]3O[C@H]1C[C@H](N)[C@H](O)[C@H](C)O1` [doxorubicin], for which the “growth rate of HCC-78 cells (control group = 100%)” value in the assay on HCC-78 cells (24 hours after treatment) stood at 57.65%.

As for `CC(=O)O[C@H]1C(=O)[C@@]2(C)[C@H]([C@H](OC(=O)c3ccccc3)[C@]3(O)C[C@H](OC(=O)[C@H](O)[C@@H](NC(=O)c4ccccc4)c4ccccc4)C(C)=C1C3(C)C)[C@]1(OC(C)=O)CO[C@@H]1C[C@@H]2O` [paclitaxel], in assay [1], the “cell growth rate of MCF-7 as compared with control group” value amounted to 46.86%.

As to `Cc1cc(Nc2ncc(Cl)c(Nc3ccccc3S(=O)(=O)C(C)C)n2)c(OC(C)C)cc1C1CCNCC1` [ceritinib], the “inhibition of growth of HCC-78 cells (in words)” value in the assay with HCC-78 cells is “significantly inhibited, particularly time dependently inhibited the growth of HCC-78 cells”. Further, the results for the “growth rate of HCC-78 cells (control group = 100%)” value in the assay on HCC-78 cells (24 hours after treatment), in the assay with HCC-78 cells (48 hours after treatment) and in the assay with HCC-78 cells (72 hours after treatment) were 73.73%, 37.17% and 17.99%, respectively. Further, in the assay with HCC-78 cell line, the “AMP increase as compared with control group” value worked out at 188.21%. Further, the “adenosine decrease as compared with control group” value in the assay with HCC-78 cell line is 95.31%. In addition, in the assay with HCC-78 cell line, the “cAMP decrease as compared with control group” value stood at 66.78%.

Turning to `C[C@@H](Oc1cc(-c2cnn(C3CCNCC3)c2)cnc1N)c1c(Cl)ccc(F)c1Cl` [crizotinib], in the assay with MCF-7 cell line, the AMP increase was 82.91%, the adenosine decrease is on record as 32.07% and the cAMP decrease amounted to 28.6%. For the same compound, in the assay on HCC-78 cells, the “inhibition of growth of HCC-78 cells (in words)” value was “significantly inhibited, particularly time dependently inhibited the growth of HCC-78 cells”.

For `CC(C)(C)c1nc(-c2cccc(NS(=O)(=O)c3c(F)cccc3F)c2F)c(-c2ccnc(N)n2)s1` [dabrafenib], the “inhibition of cell growth of MCF-7 cell line (in words)” value in assay [1] (Student's t-test, p value <0.05) is recorded as 5 kinds of kinase inhibitors except dabrafenib significantly inhibited.

These data come from patent publication US11506654B2, “Method, composition and kit for screening ALK or ROS-1 kinase inhibitor” (KOREA INSTITUTE OF SCIENCE AND TECHNOLOGY, priority 2018, dated 2022).
